BindingDB's records for doi:10.1021/ml100283h (2011)

What was measured:
[1] = target: T1, Cytochrome P450 11B1, mitochondrial (Homo sapiens, UniProt P15538); assay: Inhibition of human CYP11B1 expressed in hamster V79 MZ cells using [3H] 11 deoxycorticosterone as substrate by HPLC radioflow detector
T1 sequence (P15538 whole entry): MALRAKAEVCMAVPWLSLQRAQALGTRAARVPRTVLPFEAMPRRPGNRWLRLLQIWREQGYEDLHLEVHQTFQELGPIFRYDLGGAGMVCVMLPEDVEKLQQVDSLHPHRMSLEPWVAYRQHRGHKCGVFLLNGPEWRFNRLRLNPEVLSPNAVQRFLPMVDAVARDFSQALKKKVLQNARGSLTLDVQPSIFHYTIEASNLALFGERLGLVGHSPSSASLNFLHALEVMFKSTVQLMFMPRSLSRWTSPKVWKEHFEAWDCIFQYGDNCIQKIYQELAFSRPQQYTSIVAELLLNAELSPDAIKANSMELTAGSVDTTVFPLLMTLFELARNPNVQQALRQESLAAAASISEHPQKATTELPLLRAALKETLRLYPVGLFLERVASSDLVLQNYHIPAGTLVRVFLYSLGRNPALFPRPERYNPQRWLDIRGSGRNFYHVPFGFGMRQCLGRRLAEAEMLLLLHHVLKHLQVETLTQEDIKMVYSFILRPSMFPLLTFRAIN

[2] = target: T2, Cytochrome P450 11B2, mitochondrial (Homo sapiens, UniProt P19099); assay: Inhibition of human CYP11B2 expressed in hamster V79 MZ cells using [3H] 11 deoxycorticosterone as substrate by HPLC radioflow detector
T2 sequence (P19099 whole entry): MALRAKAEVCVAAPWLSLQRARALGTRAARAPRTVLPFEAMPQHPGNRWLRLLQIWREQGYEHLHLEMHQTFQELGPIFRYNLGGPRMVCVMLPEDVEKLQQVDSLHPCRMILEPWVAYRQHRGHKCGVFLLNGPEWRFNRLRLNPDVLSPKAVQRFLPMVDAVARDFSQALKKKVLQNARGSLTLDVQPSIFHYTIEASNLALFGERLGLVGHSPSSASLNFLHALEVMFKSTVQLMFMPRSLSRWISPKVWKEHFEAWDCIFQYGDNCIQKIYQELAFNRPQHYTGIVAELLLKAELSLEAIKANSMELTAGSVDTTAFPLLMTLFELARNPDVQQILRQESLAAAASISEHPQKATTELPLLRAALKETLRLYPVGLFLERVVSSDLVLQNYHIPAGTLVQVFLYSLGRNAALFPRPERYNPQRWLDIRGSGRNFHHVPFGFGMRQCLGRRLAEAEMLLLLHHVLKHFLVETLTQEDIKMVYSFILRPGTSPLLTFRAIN

IC50 [1]: 152 nM
IC50 [2]: 2770 nM
Compound: c1ccc(-c2ccc(Cn3ccnc3)cn2)cc1 [5-((1H-imidazol-1-yl)methyl)-2-phenylpyridine]
